According to US20250345370A1, “MICROBIAL LIBERATION OF N-METHYLSEROTONIN FROM ORANGE FIBER” (Washington University, priority 2022, published 2025):
Where two headings read alike, the source gives them in different places.

How the values were obtained:
[1] = Human studies with pea and orange fiber snack prototypes: fecal N-methylserotonin and serotonin levels; format: in vivo
Procedure: Human studies with pea and orange fiber snack prototypes. Two separate open-label, single group assignment studies were performed involving members of the Missouri Adolescent Female Twin Study (MOAFTS) cohort who were age 31-45 years at the time of enrollment. The first study with the pea fiber snack was performed between April and August 2017, while the second study with the orange fiber snack was conducted between August and December 2017. All participants provided written informed consent and the studies were approved by the Washington University Institutional Review Board (IRB ID #201611122). (ClinicalTrials.gov NCT03078283).
The design of the two studies were identical except for the fiber snack supplement used and the number of participants in each study. Individuals who were pregnant or trying to get pregnant, had inflammatory bowel disease, gastrointestinal cancer, hepatitis, HIV, renal failure, or allergies to dairy, eggs, fish, crustacean shellfish, tree nuts, sesame seeds, peanuts, wheat, gluten, soybeans, celery, or mustard were excluded from the study. In Study 1, four twin pairs were concordant for obesity (BMI>30 kg/m2) while five pairs were discordant with one member being obese and the other non-obese (n=18 participants, […] (mean±SD); Table S8B). Study 2 involved 24 participants: 12 dizygotic twin pairs [37±2.9 years (mean±SD)], nine of whom had participated in the pea fiber study; for these nine pairs, the interval between cessation of pea fiber snack consumption and initiation of orange fiber consumption ranged from 50 to 106 days [84+26 days (mean±SD)]. Participants consumed their normal, unrestricted diet for the first two weeks of the study (pre-intervention phase). At the beginning of week three, they supplemented their diets with one 35 g fiber snack serving a day for one week, then two 35 g snack servings a day the following week, and thereafter, three 35 g snacks per day for four weeks (weeks 5-8) at breakfast, lunch and dinner. No attempt was made to adjust the diets of participants other than supplementation with the fiber snack. Snack prototypes were manufactured by Mondeldz International, Inc. (see Table S8A for their composition), which participants received in weekly shipments from the study center. The pea fiber snacks were in the form of rotary biscuits (6.7 g total fiber/35 g snack) or extruded bars (8.1 g fiber/35 g snack) with participants having the option to alternate between them. The orange fiber snacks were all in the form of extruded bars (10.2 g total fiber/35 g snack). Compliance was monitored throughout by the study coordinator through weekly phone calls. The primary outcomes for each study were the effects of the respective prototypes on gut microbial community structure and function.
Fecal samples were collected by participants in small medically approved collection containers. Each fecal sample was frozen immediately at −20° C. and temporarily stored in dedicated freezers provided to participants at the beginning of the study. Within 12-48 hours after collection, all samples were shipped, via overnight delivery, in an insulated container containing frozen gel packs, to a biospecimen repository located in Washington University in St. Louis and overseen by one of the authors (A.C.H.). Once received, samples were stored at −80° C. until processing for LC-QqQ-MS analysis of N-methylserotonin levels and culture-independent characterization of ASV and CAZyme gene abundances.
Measurement of fecal N-methylserotonin levels—Each fecal sample was homogenized with a porcelain mortar (4 L) and pestle while submerged in liquid nitrogen; multiple 500 mg aliquots of the pulverized frozen material were stored at −80° C. N-methylserotonin was quantified using the same protocol that was employed for mouse fecal samples (as described herein elsewhere).
N-methylserotonin levels and microbiome CAZyme gene abundances in humans consuming fiber snack prototypes. […]

[2] = methanol, 50 mg orange fiber
5-Htr2A = 5-Htr2A (Homo sapiens, UniProt P28223); conditions: in vitro studies; cited from earlier work
[3] = Targeted LC-QqQ-MS of N-methylserotonin levels in gut contents, tissues, plasma and feces of gnotobiotic mice
[4] = 14-member consortium, 10% orange fiber diet

Chain of 5-Htr2A (P28223 whole entry): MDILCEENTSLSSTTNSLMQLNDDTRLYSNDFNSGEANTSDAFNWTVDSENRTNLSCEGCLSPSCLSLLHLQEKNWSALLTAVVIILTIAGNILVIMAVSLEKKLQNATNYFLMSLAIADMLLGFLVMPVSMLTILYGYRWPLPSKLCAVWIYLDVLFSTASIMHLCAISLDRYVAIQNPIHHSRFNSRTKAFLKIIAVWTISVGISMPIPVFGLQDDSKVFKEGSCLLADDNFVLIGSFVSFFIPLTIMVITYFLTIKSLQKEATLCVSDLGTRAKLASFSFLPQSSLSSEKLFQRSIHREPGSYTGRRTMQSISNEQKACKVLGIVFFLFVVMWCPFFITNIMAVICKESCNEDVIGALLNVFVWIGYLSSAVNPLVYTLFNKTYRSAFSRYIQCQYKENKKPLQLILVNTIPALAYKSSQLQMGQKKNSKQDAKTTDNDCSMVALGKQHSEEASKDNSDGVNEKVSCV

In the case of `CNCCc1c[nH]c2ccc(O)cc12` [N-methylserotonin], the “fecal samples in which N-methylserotonin was undetectable” value ([1]; 36 samples, pea fiber snack prototype, weeks 3 and 5) is reported as 87%, the “fecal samples in which N-methylserotonin was present” value ([1]; 48 samples, participants consuming the orange fiber snack prototype) is reported as 98% and the “fecal N-methylserotonin concentration” value ([1]; orange fiber snacks at maximal dose (3 snacks/day), mean±SD) is reported as 72.5 ± 38.4 µM. For the same molecule, the “fecal N-methylserotonin (undetectable)” value ([1]; pea fiber snack prototype, 87% of 36 samples) was less than 0.05 µg/g, the “N-methylserotonin released after two rounds of extraction” value [2] was 31 ng and the “N-methylserotonin released in total after 15 rounds” value [2] was 171 ng. It also gave a N-methylserotonin recovered ([2]; Extraction 1) of 16 ng, a N-methylserotonin recovered ([2]; Extraction 2) of 15 ng and a N-methylserotonin recovered ([2]; Extraction 3) of 16 ng. The N-methylserotonin recovered ([2]; Extraction 4) was 15 ng, the N-methylserotonin recovered ([2]; Extraction 5) was 14 ng and the N-methylserotonin recovered ([2]; Extraction 6) was 13 ng. The N-methylserotonin recovered ([2]; Extraction 7) was 12 ng, the N-methylserotonin recovered ([2]; Extraction 8) was 10 ng and the N-methylserotonin recovered ([2]; Extraction 9) was 11 ng. It also gave a N-methylserotonin recovered ([2]; Extraction 10) of 10 ng, a N-methylserotonin recovered ([2]; Extraction 11) of 9 ng and a N-methylserotonin recovered ([2]; Extraction 12) of 9 ng. It also gave a N-methylserotonin recovered ([2]; Extraction 13) of 8 ng, a N-methylserotonin recovered ([2]; Extraction 14) of 7 ng and a N-methylserotonin recovered ([2]; Extraction 15) of 6 ng. The binding (5-Htr2A) was “binds”, the “fecal N-methylserotonin levels” value ([3]; 14-member community, orange fiber-supplemented HiSF-LoFV diet) was 131±19 ng/g feces and the “N-methylserotonin in cecal contents” value [3, 4] was 173 ± 14 ng/g. The “N-methylserotonin in cecal tissue” value [3, 4] was 130 ± 13 ng/g, the “N-methylserotonin in colonic contents” value [3, 4] was 139 ± 13 ng/g and the “N-methylserotonin in colonic tissue” value [3, 4] was 164 ± 25 ng/g. The N-methylserotonin in plasma [3, 4] was 1.22 ± 0.76 ng/mL, the “N-methylserotonin in small intestine, liver, gastrocnemius muscle and kidney” value [3, 4] was less than 1 ng/g and the “N-methylserotonin in cecal or colonic contents or intestinal and extra-intestinal tissues” value ([3]; 14-member consortium, 10% pea fiber diet, below limits of detection) was less than 0.5 ng/g. For the same molecule, the “fecal N-methylserotonin levels” value ([3]; germ-free mice, 1 mg/kg/day in drinking water) was 133.5 ± 15 ng/g.
